# Laboratory results from patent publication US11247994B2, “6-dithio-substituted-2′-deoxyguanosine compound, preparation method thereof and use thereof” (ZHEJIANG UNIVERSITY, priority 2018, dated 2022).
# Tests used:
# [1] = system: human colon cancer cells HCT116; assay: MTT assay, tumor cell growth inhibition, HCT116; type: cell-based; details: HCT-116, 48 hours
# Source text: (§1) MTT Assay—Inhibitory Effect of 6-dithio-substituted-2′-deoxyguanosine Derivatives on Tumor Cell Growth
# (§2) We measured the tumor cell growth inhibitory activity of candidate compounds by MTT assay. Human tumor cells in logarithmic growth phase were digested with 0.25% pancreatin for a certain time, centrifuged, re-suspended and counted with a blood cell counting plate to prepare a cell suspension, and the cell suspension was adjusted to 1.0×10^4-1×10^5 cells/mL. The cell suspension was inoculated into a 96-well culture plate, 100 μL per well, and cultured in an incubator with saturated humidity, 37° C. and 5% CO2 for 24 hours until the cells completely adhered to the wall. The test compound was diluted to the required concentration with a complete medium, the complete medium of the 96-well culture plate inoculated with human tumor cells was sucked out, a medicament-containing medium was added, 100 μL per well, the final concentration of DMSO was less than 0.1%, and the culture plate was put in an incubator for 48 hours. 10 μl of MTT was added to each well of the 96-well plate, and the culture was continued for 4 h. The culture was stopped and the culture solution in the well was carefully sucked off. 150 μL DMSO was added to each well, and shaken at a low speed for 10 min on a shaking table, so that the crystal was fully dissolved. The absorbance of each well was measured at OD 570 nm of an enzyme-linked immunosorbent assay instrument. At the same time, zeroing wells (the culture medium, MTT, dimethyl sulfoxide) and control wells (cells, a drug dissolution medium with the same concentration, a culture solution, MTT, dimethyl sulfoxide) were set up, and the cell growth inhibitory activity was calculated with the corresponding solvents as the control. 3-6 multiple wells in each group were set up with repetition of several times. Cell viability of control=(Adrug group−Azeroing well)/(Acontrol well−Azeroing well)*100%. Drawing was drawn, the data were fitted into a concentration response curve with a variable slope, and IC50 value was calculated from the curve.
# [2] = system: human breast cancer cells Bcap37; assay: MTT assay, tumor cell growth inhibition, Bcap37; type: cell-based; details: 48 hours
# Source text: as §1, §2
# [3] = system: human liver cancer cells HepG2; assay: MTT assay, tumor cell growth inhibition, HepG2; type: cell-based; details: 48 hours
# Source text: as §1, §2
# [4] = Blood biochemical analysis and HE staining of tissues in HCT116 tumor-bearing nude mice; type: in vivo; details: tail vein once every two days, 12 times, blood 48 hours after the last treatment
# Procedure: (§3) We took human colon cancer cell line HCT116 as the research object, and established a subcutaneous transplanted tumor model of human colon cancer in 32 immunodeficient nude mice. The 24th generation HCT116 cells in logarithmic growth phase were digested with pancreatin to prepare a single-cell suspension, and 1×10^7 cells were inoculated subcutaneously in the right armpit of male nude mice about 5 weeks old. After inoculation, cyclophosphamide (100 mg/kg) was injected intraperitoneally for two consecutive days. […] On the 20th day after colon cancer cell HCT116 was implanted subcutaneously, nude mice were divided into 7 groups by a random number table method, including a test drug group, a positive control group and a blank control group. Specifically, group A: the compound A was administrated; Group B: the compound B was administrated; Group C: the compound C was administrated; Group D: the compound D was administrated; Group E: the compound 6-thio-DG was administrated; Group F: the compound PX-12 was administrated; Group G: blank group, without administration of any compound. Except group C with 3 rats and group G with 4 rats, all other 5 groups had 5 rats, they mice were labeled and injected by tail vein once every two days for 24 days, 12 times, with the dose of compound A being 2 mg/kg for the first 8 times and 10 mg/kg for the last 4 times, and the dosages of other drugs being the same molar weights. The tumor volume was calculated by taking the length of the tumor as the longest diameter and the width as the corresponding vertical diameter, and the tumor volume V=(length×width^2) mm^3/2. 48 hours after the last treatment, blood was taken from the eyes, and then the animals were killed. Blood was centrifuged to get the supernatant, and then blood biochemical analysis was performed. Paraffin embedded sections of fixed tissues were stained with HE. The tumor mass in a frozen tissue was sectioned in a frozen state, and then stained by DAPI and TUNEL to judge the apoptosis of the tumor tissue in nude mice.
# [5] = target: T1, TrxR/Trx-1 (Homo sapiens, UniProt P10599); assay: Ellman test, inhibition of TrxR/Trx-1 activity; type: biochemical; details: Ellman reaction, 37° C. 30 min, absorbance 412 nm; read-out: IC50, inhibition of TrxR/Trx-1 activity
# T1 sequence (P10599 2-105 limits assumed): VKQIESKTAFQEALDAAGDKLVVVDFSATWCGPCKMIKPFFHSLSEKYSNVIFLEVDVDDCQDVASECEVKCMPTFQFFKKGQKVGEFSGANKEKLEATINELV
# Source text: Ellman Test—Inhibitory Effect of 6-dithio-substituted-2′-deoxyguanosine Derivative Analogues on TrxR/Trx-1 Activity
# A TrxR/TR experiment based on the Ellman reaction was used to determine the inhibitory activity of candidate compounds. Ellman reaction is that 5,5′-dithiobis (2-nitrobenzoic acid) (DTNB) reacts with sulfhydryl (—SH) to form a yellow substance with absorption at 412 nm. The increase of absorption can be equivalent to the decrease of NADPH mediated by TrxR, thus further judging the activity of TrxR/Trx-1. All experiments were carried out on 96-well plates. Before the start of the enzyme reaction, five groups of corresponding test compound stock solutions with different concentrations were prepared. In the TrxR/Trx-1 reaction, a total volume per well was 60 μL, including 100 mM HEPES, 5 mM EDTA (HE buffer, pH 7.5), 1 mM NADPH, 1.0 μM TrxR, 0.8 μM Trx-1, 2.5 mg/mL bovine insulin and the required concentration of compounds to be tested. No compound to be tested was added to the control group. No compound to be tested, TrxR and Trx-1 were added in the blank group. The plate was shaken on an oscillator for 30 seconds to fully mix the reactants. After incubation at 37° C. for 30 min, 100 μL of the prepared mixture containing 6 M guanidine hydrochloride, 50 mm Tris and 10 mm DTNB was added to terminate the reaction. After 15 minutes of incubation, the absorbance was measured at 412 nm. Finally, TrxR/Trx-1 activity %=(Atest−Akb)/(Acontrol−Akb), that is, the relative percentage of TrxR/Trx-1 activity was the activity inhibited by adding 2′-deoxyguanosine derivatives relative to the activity without 2′-deoxyguanosine derivatives. The data were fitted into a concentration response curve with a variable slope, and the IC50 value was calculated from the curve.
# [6] = system: human colon cancer cells SW620; assay: MTT assay, tumor cell growth inhibition, SW620; type: cell-based; details: SW-620, 48 hours
# Source text: as §1, §2
# [7] = system: human colon cancer cells HT29; assay: MTT assay, tumor cell growth inhibition, HT29; type: cell-based; details: HT-29, 48 hours
# Source text: as §1, §2
# [8] = system: human non-small cell lung cancer A549; assay: MTT assay, tumor cell growth inhibition, A549; type: cell-based; details: 48 hours
# Source text: as §1, §2
# [9] = system: human melanoma cells A375; assay: MTT assay, tumor cell growth inhibition, A375; type: cell-based; details: A-375, 48 hours
# Source text: as §1, §2
# [10] = system: human gastric cancer cells BGC; assay: MTT assay, tumor cell growth inhibition, BGC; type: cell-based; details: 48 hours
# Source text: as §1, §2
# [11] = system: human breast cancer cells MCF7; assay: MTT assay, tumor cell growth inhibition, MCF7; type: cell-based; details: 48 hours
# Source text: as §1, §2
# [12] = system: NCM460; assay: MTT assay, cell growth inhibition, NCM460; type: cell-based; details: Homo sapiens, 48 hours, read-out: Tumor cell growth inhibition IC50, NCM460
# Source text: as §1, §2
# [13] = system: human leukemia cells K562; assay: MTT assay, tumor cell growth inhibition, K562; type: cell-based; details: 48 hours
# Source text: as §1, §2
# [14] = system: human colon cancer cell line HCT116 subcutaneous transplanted tumor; assay: Tumor-bearing test in nude mice, HCT116 subcutaneous transplanted tumor (tumor volume, TUNEL); type: in vivo; details: HCT116 model; for Extent of apoptosis in tumor tissue (TUNEL staining, rank order): frozen tumor sections, DAPI and TUNEL, G group = blank; for Inhibitory effect on the growth of subcutaneous transplanted tumor tissue in nude mice (rank order, from slope of tumor volume): compound A 2 mg/kg first 8 times, 10 mg/kg last 4 times, others equimolar, KB = blank
# Source text: Tumor-Bearing Test in Nude Mice—Inhibitory Effect of 6-Dithio-Substituted-2′-Deoxyguanosine Derivatives on the Growth of Subcutaneous Transplanted Tumor Tissue in Nude Mice
# 1) Tumor-Bearing Mouse Model of Human Colon Cancer Cell Line HCT116
# as §3
# [15] = tail vein once every two days for 24 days
Compound,IC50 [1] [µM],IC50 [2] [µM],IC50 [3] [µM],Alanine aminotransferase [4] [U/L],Albumin [4] [g/L],Alkaline phosphatase [4] [U/L],Aspartate aminotransferase [4] [U/L],BUN [4] [mmol/L],Chloride ion [4] [mmol/L],Creatine kinase [4] [U/L],Creatinine [4] [µmol/L],Glucose [4] [mmol/L],Potassium ion [4] [mmol/L],Sodium ion [4] [mmol/L],Total bilirubin [4] [µmol/L],Total cholesterol [4] [mmol/L],Total protein [4] [g/L],Triglyceride [4] [mmol/L],IC50 [5] [µM],IC50 [6] [µM],other results
"Nc1nc2c(ncn2[C@H]2C[C@H](O)[C@@H](CO)O2)c(=S)[nH]1 [Compound 6-thio-dG, 6-thio-2′-deoxyguanosine, reference compound]",17.5,> 100,< 10,44.3,29.8,49.6,172.4,11.5,120.8,2125,12.0,3.12,7.18,158.8,-0.10,2.62,51.8,1.10,> 100,> 100,"IC50 [7]: 3.04 µM; IC50 [8]: 33.6 µM; IC50 [9]: 0.4 µM; IC50 [10]: > 100 µM; IC50 [11]: > 100 µM; IC50 [12]: > 1000 µM; IC50 [13]: 23.3 µM; Extent of apoptosis in tumor tissue (TUNEL staining, rank order) [14]: D group>A group≈B group≈E group (6-thio-dG group)>C group>F group (PX-12 group)>G group (KB group); Inhibitory effect on the growth of subcutaneous transplanted tumor tissue in nude mice (rank order, from slope of tumor volume) [14, 15]: D>B≈A≈6-thio-dG>PX-12>C>KB"
"CCC(C)SSc1nc(N)nc2c1ncn2C1C[C@H](O)[C@@H](CO)O1 (stereo partly shown) [Compound A, 6-(sec-butyldithio)-2′-deoxyguanosine]",1.27,18.2,10 to 50,33.3,24.8,36.0,153.4,10.7,113.8,1896,-0.80,2.21,7.56,155.6,0.40,2.99,52.6,0.84,31.7,0.21,"IC50 [7]: 4.55 µM; IC50 [8]: 30.8 µM; IC50 [9]: 0.6 µM; IC50 [10]: 6.09 µM; IC50 [12]: > 1000 µM; IC50 [13]: 9.88 µM; Extent of apoptosis in tumor tissue (TUNEL staining, rank order) [14]: D group>A group≈B group≈E group (6-thio-dG group)>C group>F group (PX-12 group)>G group (KB group); Inhibitory effect on the growth of subcutaneous transplanted tumor tissue in nude mice (rank order, from slope of tumor volume) [14, 15]: D>B≈A≈6-thio-dG>PX-12>C>KB; Ability to inhibit the growth of transplanted tumor tissue compared with positive controls ([14]; tail vein once every two days for 24 days, equimolar doses): close to that of the positive control 6-thio-dG and stronger than that of the positive control PX-12"
